According to patent US9914730B2, “Azaquinazoline inhibitors of Atypical protein Kinase C” (Ignyta, Inc., priority 2012, dated 2018):
pIC50: −log10 of the molar value.

Target: T1, full-length human PKCι (Homo sapiens, UniProt P41743)
T1 construct: Recombinant, full-length human PKCι expressed in Sf21 insect cells is also commercially available; purchased; host or cells: Sf21 insect cells
T1 sequence (P41743 1-596): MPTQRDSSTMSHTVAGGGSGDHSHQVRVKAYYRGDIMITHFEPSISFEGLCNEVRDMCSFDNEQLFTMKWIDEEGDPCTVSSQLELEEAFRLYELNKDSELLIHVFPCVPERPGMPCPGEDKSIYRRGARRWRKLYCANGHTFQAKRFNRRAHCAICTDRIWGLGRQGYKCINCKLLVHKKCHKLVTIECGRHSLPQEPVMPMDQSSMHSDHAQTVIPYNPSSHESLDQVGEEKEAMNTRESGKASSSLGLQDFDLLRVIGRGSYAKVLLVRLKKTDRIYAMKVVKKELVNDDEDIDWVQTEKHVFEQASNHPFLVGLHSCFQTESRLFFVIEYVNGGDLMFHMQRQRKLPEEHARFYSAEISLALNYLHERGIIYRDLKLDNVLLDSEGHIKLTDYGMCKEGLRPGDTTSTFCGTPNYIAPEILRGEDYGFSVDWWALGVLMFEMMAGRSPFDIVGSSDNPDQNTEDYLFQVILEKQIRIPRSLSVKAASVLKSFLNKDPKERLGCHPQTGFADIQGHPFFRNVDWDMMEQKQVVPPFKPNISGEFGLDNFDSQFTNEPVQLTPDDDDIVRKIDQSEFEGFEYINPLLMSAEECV
Assay: PKCι IC50 IMAP assay, full-length PKCι at 150 μM ATP
Format: biochemical
Settings: read-out: IC50 in IMAP assay against full length PKCi at 150 μM ATP
Method in brief: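 Compounds in 4% final DMSO are mixed with Sf21-derived full-length human PKCι (typically 15 pM) and 100 nM FAM-labelled pseudosubstrate peptide, then started with 150 μM ATP. Reaction runs 60 min at room temperature, is quenched with IMAP development reagent for 2 h, and fluorescence polarisation is measured to derive IC50.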

pIC50, 6.00 to 7.00:
Nc1cccc(CC(=O)Nc2cc(-c3nc(N[C@@H]4CCNC4)c4ccncc4n3)ccn2)c1 [Example 317, 2-(3-Amino-phenyl)-N-{4-[4-((R)-pyrrolidin-3-ylamino)-pyrido[3,4-d]pyrimidin-2-yl]-pyridin-2-yl}-acetamide]
COc1cncc2nc(-c3ccnc(NC(=O)CN4CCOCC4)c3)nc(N3CCNCC3)c12 [Example 209, N-[4-(5-Methoxy-4-piperazin-1-yl-pyrido[3,4-d]pyrimidin-2-yl)-pyridin-2-yl]-2-morpholin-4-yl-acetamide]
Nc1ccccc1C(=O)Nc1cc(-c2nc(N[C@@H]3CCNC3)c3ccncc3n2)ccn1 [Example 303, 2-Amino-N-{4-[4-((R)-pyrrolidin-3-ylamino)-pyrido[3,4-d]pyrimidin-2-yl]-pyridin-2-yl}-benzamide]
CN1CCN(c2cccc(Nc3cc(-c4nc(N5CCC5)c5c(C6CC6)cncc5n4)ccn3)c2)CC1 [Example 761, [4-(4-Azetidin-1-yl-5-cyclopropyl-pyrido[3,4-d]pyrimidin-2-yl)-pyridin-2-yl]-[3-(4-methyl-piperazin-1-yl)-phenyl]-amine]
N[C@H](CNc1nc(-c2ccncc2F)nc2cnccc12)Cc1ccccc1 [Example 10, N-[(2S)-2-amino-3-phenylpropyl]-2-(3-fluoropyridin-4-yl)pyrido[3,4-d]-pyrimidin-4-amine]
Fc1cncc(Nc2cc(-c3nc(N4CCNCC4)c4c(C5CC5)cncc4n3)ccn2)c1 [Example 535, [4-(5-Cyclopropyl-4-piperazin-1-yl-pyrido[3,4-d]pyrimidin-2-yl)-pyridin-2-yl]-(5-fluoro-pyridin-3-yl)-amine]
CN(C)[C@H](CNc1nc(-c2ccncc2)nc2cnccc12)Cc1ccccc1 [Example 25, N,N-Dimethyl[(2S)-1-phenyl-3-{[2-(pyridin-4-yl)-pyrido[3,4-d]-pyrimidin-4-yl]-amino}propan-2-yl]amine]

pIC50, 5.00 to 6.00:
COCCN1CCN(c2nc(-c3ccnc(Nc4ccc(F)cc4)c3)nc3cncc(C4CC4)c23)CC1 [Example 662, (4-{5-Cyclopropyl-4-[4-(2-methoxy-ethyl]-piperazin-1-yl]-pyrido[3,4-d]pyrimidin-2-yl}-pyridin-2-yl)-(4-fluoro-phenyl)-amine]
OCC1CCN(c2nc(-c3ccnc4[nH]c(C(F)(F)F)cc34)nc3cncc(C4CC4)c23)CC1 [Example 1242, {1-[5-Cyclopropyl-2-(2-trifluoromethyl-1H-pyrrolo[2,3-b]pyridin-4-yl)-pyrido[3,4-d]pyrimidin-4-yl]-piperidin-4-yl}-methanol]

pIC50, 4.40 to 5.00:
CCCc1nccc2c(N3CCNCC3)nc(-c3ccncc3)nc12 [Example 159, 4-piperazin-1-yl-8-propyl-2-pyridin-4-yl-pyrido[3,4-d]pyrimidine]

pIC50, > 7.00:
Fc1ccc(Cl)nc1Nc1cc(-c2nc(N3CCNCC3)c3c(C4CC4)cncc3n2)ccn1 [Example 801, (6-Chloro-3-fluoro-pyridin-2-yl)-[4-(5-cyclopropyl-4-piperazin-1-yl-pyrido[3,4-d]pyrimidin-2-yl)-pyridin-2-yl]-amine]
Cc1ccncc1Nc1cc(-c2nc(N3CCNCC3)c3c(C4CC4)cncc3n2)ccn1 [Example 478, [4-(5-Cyclopropyl-4-piperazin-1-yl-pyrido[3,4-d]pyrimidin-2-yl)-pyridin-2-yl]-(4-methyl-pyridin-3-yl)-amine]
COc1cncc2nc(-c3ccnc(Nc4cccc(F)c4F)c3)nc(N3CCNCC3)c12 [Example 439, (2,3-Difluoro-phenyl)-[4-(5-methoxy-4-piperazin-1-yl-pyrido[3,4-d]pyrimidin-2-yl)-pyridin-2-yl]-amine]
COc1cncc2nc(-c3ccnc(Nc4ccc(-c5ccccc5)cn4)c3)nc(N[C@@H]3CCNC3)c12 [Example 329, {5-Methoxy-2-[2-(5-phenyl-pyridin-2-ylamino)-pyridin-4-yl]-pyrido[3,4-d]pyrimidin-4-yl}-(R)-pyrrolidin-3-yl-amine]
N#Cc1cccc(CC(=O)Nc2cc(-c3nc(N[C@@H]4CCNC4)c4ccncc4n3)ccn2)c1 [Example 348, 2-(3-Cyano-phenyl)-N-{4-[4-((R)-pyrrolidin-3-ylamino)-pyrido[3,4-d]pyrimidin-2-yl]-pyridin-2-yl}-acetamide]
C[C@@H]1CN(c2nc(-c3ccnc(NC4CCN(CC(F)(F)F)CC4)c3)nc3cncc(C4CC4)c23)C[C@H](C)N1 [Example 2073, {4-[5-Cyclopropyl-4-((cis)-3,5-dimethyl-piperazin-1-yl)-pyrido[3,4-d]pyrimidin-2-yl]-pyridin-2-yl}-[1-(2,2,2-trifluoro-ethyl)-piperidin-4-yl]-amine]
COc1cncc2nc(-c3ccnc(NC(=O)C4CCOCC4)c3)nc(N3CCNCC3)c12 [Example 218, Tetrahydro-pyran-4-carboxylic acid[4-(5-methoxy-4-piperazin-1-yl-pyrido[3,4 d]pyrimidin-2-yl)-pyridin-2-yl]-amide]
COc1cncc2nc(-c3ccnc(Nc4ncco4)c3)nc(N3CCNCC3)c12 [Example 220, [4-(5-Methoxy-4-piperazin-1-yl-pyrido[3,4-d]pyrimidin-2-yl)-pyridin-2-yl]-oxazol-2-yl-amine]
c1ccc(-c2ccc(Nc3cc(-c4nc(N[C@@H]5CCNC5)c5ccncc5n4)ccn3)nc2)cc1 [Example 318, {2-[2-(5-Phenyl-pyridin-2-ylamino)-pyridin-4-yl]-pyrido[3,4-d]pyrimidin-4-yl}-(R)-pyrrolidin-3-yl-amine]
C[C@H]1CN(c2nc(-c3ccnc(Nc4nc(F)ccc4F)c3)nc3cncc(C4CC4)c23)CCN1 [Example 694, {4-[5-Cyclopropyl-4-((S)-3-methyl-piperazin-1-yl)-pyrido[3,4-d]pyrimidin-2-yl]-pyridin-2-yl}-(3,6-difluoro-pyridin-2-yl)-amine]
c1cc(-c2nc(N3CCNCC3)c3c(C4CC4)cncc3n2)c2cc([C@@H]3C[C@H]4CC[C@@H]3O4)[nH]c2n1 (racemic) [Example 2121, (±)-exo-5-Cyclopropyl-2-[2-(7-oxa-bicyclo[2.2.1]hept-2-yl)-1H-pyrrolo[2,3-b]pyridin-4-yl]-4-piperazin-1-yl-pyrido[3,4-d]pyrimidine]
FC(F)(F)c1ccc(Nc2cc(-c3nc(N[C@@H]4CCNC4)c4ccncc4n3)ccn2)nc1 [Example 351, (R)-Pyrrolidin-3-yl-{2-[2-(5-trifluoromethyl-pyridin-2-ylamino)-pyridin-4-yl]-pyrido[3,4-d]pyrimidin-4-yl}-amine]
CCCc1ccc(F)c(Nc2cc(-c3nc(N4CCNCC4)c4c(C5CC5)cncc4n3)ccn2)c1 [Example 640, [4-(5-Cyclopropyl-4-piperazin-1-yl-pyrido[3,4-d]pyrimidin-2-yl)-pyridin-2-yl]-(2-fluoro-5-propyl-phenyl)-amine]
C[C@@H](Nc1cc(-c2nc(N3CCNC(C)(C)C3)c3c(C4CC4)cncc3n2)ccn1)c1ccccc1 [Example 2007, {4-[5-Cyclopropyl-4-(3,3-dimethyl-piperazin-1-yl)-pyrido[3,4-d]pyrimidin-2-yl]-pyridin-2-yl}-((R)-1-phenyl-ethyl)-amine]
Fc1cc(C2CC2)c(F)nc1Nc1cc(-c2nc(N3CCNCC3)c3c(C4CC4)cncc3n2)ccn1 [Example 2047, (5-Cyclopropyl-3,6-difluoro-pyridin-2-yl)-[4-(5-cyclopropyl-4-piperazin-1-yl-pyrido[3,4-d]pyrimidin-2-yl)-pyridin-2-yl]-amine]
CN1CCN(c2cccc(Nc3cc(-c4nc(N5CCC(O)C(O)C5)c5c(C6CC6)cncc5n4)ccn3)c2)CC1 (single isomer, unassigned) [Example 751, (3R,4S or 3R,4S)-1-(5-Cyclopropyl-2-{2-[3-(4-methyl-piperazin-1-yl)-phenylamino]-pyridin-4-yl}-pyrido[3,4-d]pyrimidin-4-yl)-piperidine-3,4-diol]
O[C@@H]1Cc2ccccc2[C@H]1Nc1cc(-c2nc(N3CCNCC3)c3c(C4CC4)cncc3n2)ccn1 [Example 2143, (1R,2R)-1-[4-(5-Cyclopropyl-4-piperazin-1-yl-pyrido[3,4-d]pyrimidin-2-yl)-pyridin-2-ylamino]-indan-2-ol]
C[C@H]1CN(c2nc(-c3ccnc(Nc4nc(F)c(F)cc4F)c3)nc3cncc(C4CCC4)c23)CCN1 [Example 808, {4-[5-Cyclobutyl-4-((S)-3-methyl-piperazin-1-yl)-pyrido[3,4-d]pyrimidin-2-yl]-pyridin-2-yl}-(3,5,6-trifluoro-pyridin-2-yl)-amine]
c1cc(-c2nc(N3CCNCC3)c3c(C4CC4)cncc3n2)cc(NC23CC(C2)C3)n1 [Example 700, Bicyclo[1.1.1]pent-1-yl-[4-(5-cyclopropyl-4-piperazin-1-yl-pyrido[3,4-d]pyrimidin-2-yl)-pyridin-2-yl]-amine]
